Measurements: PMC7177833, “2-Aminopyridine Analogs Inhibit Both Enzymes of the Glyoxylate Shunt in Pseudomonas aeruginosa” (International Journal of Molecular Sciences, 2020)
In brackets after ≈: the same amount, converted by molar mass. Where two headings read alike, the source gives them in different places.

Legend:
[1] = molecular target: T1, ICLPa (isocitrate lyase from P. aeruginosa) (Pseudomonas aeruginosa, UniProt Q9I0K4); assay: Inhibition of purified ICLPa enzymatic activity; assay type: biochemical; details: for IC50: purified enzyme, 170 nM ICL
T1 construct: made in house
T1 sequence (Q9I0K4 1-531): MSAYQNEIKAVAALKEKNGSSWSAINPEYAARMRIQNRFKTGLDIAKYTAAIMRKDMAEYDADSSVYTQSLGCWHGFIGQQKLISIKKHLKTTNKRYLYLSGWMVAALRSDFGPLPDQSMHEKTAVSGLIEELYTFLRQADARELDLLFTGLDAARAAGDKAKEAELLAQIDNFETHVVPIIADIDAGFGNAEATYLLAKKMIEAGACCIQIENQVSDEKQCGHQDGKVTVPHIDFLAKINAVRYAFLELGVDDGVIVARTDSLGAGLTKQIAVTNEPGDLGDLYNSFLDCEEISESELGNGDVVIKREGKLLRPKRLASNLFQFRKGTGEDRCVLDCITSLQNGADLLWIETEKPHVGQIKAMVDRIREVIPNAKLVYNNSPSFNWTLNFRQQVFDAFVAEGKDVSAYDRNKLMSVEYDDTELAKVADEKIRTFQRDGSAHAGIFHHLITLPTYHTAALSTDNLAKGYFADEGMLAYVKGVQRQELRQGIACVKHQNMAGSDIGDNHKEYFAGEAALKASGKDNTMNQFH
Protocol: (§1) The enzymatic activity of purified ICLPa and MSPa was assayed essentially as previously described. Compounds were added to the reaction mixtures (minus substrates) and incubated for 5 min at 37 °C. The enzyme concentration in the reaction mixtures was 170 nM for ICL and 25 nM for MS (based on the concentration of the monomer in each case). […] The reactions were initiated by the addition of pH-adjusted substrates, and the initial rates were recorded as A324 nm (for ICLPa) and A412 nm (for MSPa) using a Biospectrometer (Eppendorf, Stevenage, UK). Substrate turnover was calculated from the molar extinction coefficient of the assay products: Glyoxylate-phenylhydrazone (16,800/M/cm) for ICLPa and 2-nitro-5-thiobenzoic acid (14,150/M/cm) for MSPa.
(§2) All data fitting was performed with GraphPad Prism version 7.04 (GraphPad Software, Inc., La Jolla, CA, USA). The solid lines are the result of fitting the data to the equations denoted in relevant experimental sections. IC50 values were determined by a nonlinear fit using the equation for sigmoidal dose-response with variable slope. In all graphs, unless otherwise stated, the data points are the mean of experimental triplicates, and all error bars correspond to ± standard deviation.

[2] = molecular target: T2, MSPa (malate synthase G from P. aeruginosa) (Pseudomonas aeruginosa, UniProt Q9I636); assay: Inhibition of purified MSPa enzymatic activity; assay type: biochemical; details: for inhibition at 75 µM: 75 µM compound, read-out: Enzyme Inhibition (%) at 75 µM MSPa
T2 construct: made in house
T2 sequence (Q9I636 whole entry): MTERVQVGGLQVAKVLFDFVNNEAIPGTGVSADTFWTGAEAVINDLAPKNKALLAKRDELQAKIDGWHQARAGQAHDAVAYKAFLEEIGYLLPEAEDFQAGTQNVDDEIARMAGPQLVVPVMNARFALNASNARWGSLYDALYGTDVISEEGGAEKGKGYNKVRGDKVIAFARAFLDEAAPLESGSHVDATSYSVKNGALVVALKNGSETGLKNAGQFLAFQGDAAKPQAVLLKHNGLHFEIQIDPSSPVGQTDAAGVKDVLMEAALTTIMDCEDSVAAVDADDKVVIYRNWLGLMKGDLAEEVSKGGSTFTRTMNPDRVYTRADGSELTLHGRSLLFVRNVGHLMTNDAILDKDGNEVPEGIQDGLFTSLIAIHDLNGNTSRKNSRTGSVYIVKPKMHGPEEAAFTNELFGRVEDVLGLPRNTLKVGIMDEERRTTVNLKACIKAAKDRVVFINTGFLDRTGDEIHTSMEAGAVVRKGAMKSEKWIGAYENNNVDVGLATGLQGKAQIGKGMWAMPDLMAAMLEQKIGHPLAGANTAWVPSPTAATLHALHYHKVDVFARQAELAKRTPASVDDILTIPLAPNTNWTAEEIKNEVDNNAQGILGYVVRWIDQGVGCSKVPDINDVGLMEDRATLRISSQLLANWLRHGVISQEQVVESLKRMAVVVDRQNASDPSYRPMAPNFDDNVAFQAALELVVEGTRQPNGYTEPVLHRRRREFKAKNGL
Protocol: as §1, §2

P. aeruginosa PAO1 = assay: Antibacterial growth assay (OD600, 18 h) in LB or M9-acetate; assay type: cell-based; details: Pseudomonas aeruginosa; for inhibition at 200 µM: final optical density; for MIC: PAO1, MIC = lowest concentration inhibiting >75% of growth
Protocol: Growth assays were carried out using clear, U-bottom, sterile 96-well plates (Thermo Fisher Scientific, Bishop’s Stortford, UK). P. aeruginosa PAO1 overnight cultures were diluted to a starting OD600 of 0.05 in LB medium or M9 medium supplemented with 0.5% acetate. The test compounds were added to the indicated final concentrations, and the plates were covered with gas-permeable adhesive seals (Scientific Laboratory Supplies, Nottingham, UK). Assay controls included 1% DMSO, a positive antibiotic control (ciprofloxacin, 1 µg/mL), and medium-only wells as a control for background absorbance. […]

[3] = 75 µM compound, read-out: Enzyme Inhibition (%) at 75 µM ICLPa
[4] = PAO1, LB medium, read-out: PAO1 Growth Inhibition (%) at 200 µM LB
[5] = PAO1, M9-acetate medium, read-out: PAO1 Growth Inhibition (%) at 200 µM M9ac
[6] = M9 medium with 0.5% acetate, read-out: MIC M9ac

Row | SMILES | Enzyme Inhibition (%) at 75 µM ICLPa ([1]; 75 µM compound) [%] | IC50 [1] [µM] | inhibition at 75 µM ([1]; read-out: Enzyme Inhibition (%) at 75 µM ICLPa, 75 µM compound) [%] | IC50 [2] [µM] | inhibition at 75 µM [2] [%] | inhibition at 75 µM [1, 3] [%] | inhibition at 200 µM (P. aeruginosa PAO1; [4]) [%] | inhibition at 200 µM (P. aeruginosa PAO1; [5]) [%] | MIC (P. aeruginosa PAO1; LB medium, read-out: MIC LB) [µM] | MIC (P. aeruginosa PAO1; [6]) [µM]
1 | C=C(CC(=O)O)C(=O)O [ITA, itaconate, reference compound] | 72.6 | 24.9 | ~70 |  |  |  |  |  |  | 
2 | CC(C)(C)OC(=O)/N=C(\NC(=O)OC(C)(C)C)Nc1cc(Br)ccn1 [SB001] |  | > 75 |  | > 75 | 16.2 | 6.1 | 0 | 48 | > 200 | > 200
3 | CC(C)(C)OC(=O)/N=C(\NC(=O)OC(C)(C)C)Nc1cc(C(F)(F)F)ccn1 [SB022] |  | > 75 |  | > 75 | 0 | 4.3 | 0 | 7 | > 200 | > 200
4 | CC(C)(C)OC(=O)/N=C(\NC(=O)OC(C)(C)C)Nc1cc(F)ccn1 [SB026] |  | 54.5 |  | 59.3 | 55.1 | 62 | ~23 | 72 | > 200 | 70.9 (≈ 25.1 µg/mL)
5 | COC(=O)c1ccnc(N/C(=N/C(=O)OC(C)(C)C)NC(=O)OC(C)(C)C)c1 [SB029] |  | 64.7 |  | > 75 | 0 | 55.9 | 6 | 45 | > 200 | > 78.9
6 | CC(C)(C)OC(=O)/N=C(\NC(=O)OC(C)(C)C)Nc1ccnc(Cl)c1 [SB032] |  | 91.8 |  | 70.6 | 48.7 | 43.8 |  |  |  | 
